# Measured values as given in patent US10945771B2, “Azabicyclo[4.1.0]heptane allosteric modulators of the M4 muscarinic acetylcholine receptor” (Merck Sharp & Dohme Corp., priority 2017, dated 2021).
# Molecular target: T1, human M4 muscarinic acetylcholine receptor (Homo sapiens, UniProt P08173)
# T1 construct: expressed in transfected cells; host or cells: CHO-K1
# T1 sequence (P08173 1-479): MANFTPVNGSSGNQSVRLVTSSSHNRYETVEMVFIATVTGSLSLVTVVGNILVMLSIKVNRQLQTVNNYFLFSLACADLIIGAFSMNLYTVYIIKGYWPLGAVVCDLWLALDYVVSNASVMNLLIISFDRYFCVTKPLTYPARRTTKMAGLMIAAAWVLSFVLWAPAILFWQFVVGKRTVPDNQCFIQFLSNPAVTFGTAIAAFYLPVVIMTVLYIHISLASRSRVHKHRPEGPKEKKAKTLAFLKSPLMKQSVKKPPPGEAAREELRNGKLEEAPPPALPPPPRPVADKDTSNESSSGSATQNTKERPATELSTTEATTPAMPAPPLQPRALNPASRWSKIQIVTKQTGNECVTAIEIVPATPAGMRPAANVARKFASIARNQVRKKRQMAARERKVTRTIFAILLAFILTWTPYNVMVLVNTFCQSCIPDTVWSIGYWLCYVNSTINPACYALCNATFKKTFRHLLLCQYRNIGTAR
# Assay: human FLIPR-based M4 PAM assay (Ca2+ dye fluorescence, CHO-K1 cells with human M4 receptor and Gαqi5)
# Type: cell-based
# Details: inflection point (IP) of dose response curve, FLIPR Tetra, acetylcholine at 20% of maximum response
# Experimental: In a typical experiment the M4 muscarinic acetylcholine receptor modulating activity of the compounds of the present invention was determined in accordance with the following experimental method. CHO-K1 cells stably transfected with human M4 receptor and chimeric G-protein Gαqi5 (Coward P, et al., Analytical Biochemistry, 270:242-248 (1999)) are thawed from liquid N2 storage, resuspended in growth medium, plated in black, clear bottom 384 well plates, and incubated 16-20 hours at 37° C., 5% CO2. On the day of assay, growth medium is removed, the cells are washed 2 times with wash buffer, and cells are incubated in dye loading buffer at 37° C., 5% CO2 for ˜1 hour. Following dye loading the cell plates are placed in a FLIPR Tetra instrument and while monitoring dye fluorescence (excitation […]), 10 uL of test substance at increasing concentrations is added, and fluorescence values are recorded for 4 min. Next, 10 uL of acetylcholine is added (final concentration calculated so as to achieve 20% of the maximum acetycholine response), and the fluorescence reading is continued for 3.5 min. In some cases, a third addition of acetylcholine (final concentration calculated to achieve 70% of the maximal acetylcholine response) is performed. The resulting dose response curves are fit to a 4 parameter logistic equation and the final result is determined as the inflection point (IP) of the curve
# CHO-K1 cells stably transfected with human M4 receptor and chimeric G-protein Gαqi5 are thawed from liquid N2 storage, resuspended in growth medium, plated in black, clear bottom 384 well plates, and incubated 16-20 hours at 37° C., 5% CO2.
# On the day of assay, growth medium is removed, the cells are washed 2 times with wash buffer, and cells are incubated in dye loading buffer at 37° C., 5% CO2 for ˜1 h. Following dye loading the cell plates are placed in a FLIPR Tetra instrument and while monitoring dye fluorescence ([…]), 10 uL of test substance at increasing concentrations is added, and fluorescence values are recorded for 4 min. Next, 10 uL of acetylcholine is added (final concentration calculated so as to achieve 20% of the maximum acetycholine response), and the fluorescence reading is continued for 3.5 min. In some cases, a third addition of acetylcholine (final concentration calculated to achieve 70% of the maximal acetylcholine response) is performed.
row,EC50 [nM],SMILES
1,39,"Cc1c(N2CCC(OCC3(C)CC3)C3CC32)nc2c(c1C)C(=O)NC2 (single isomer, unassigned) [Example 1, 3,4-dimethyl-2-(5-((1-methylcyclopropyl)methoxy)-2-azabicyclo[4.1.0]heptan-2-yl)-6,7-dihydro-5H-pyrrolo[3,4-b]pyridin-5-one]"
2,1320,"Cc1c(N2CCC(OCC3(C)CC3)C3CC32)nc2c(c1C)C(=O)NC2 (single isomer, unassigned) [Example 2, 3,4-dimethyl-2-(5-((1-methylcyclopropyl)methoxy)-2-azabicyclo[4.1.0]heptan-2-yl)-6,7-dihydro-5H-pyrrolo[3,4-b]pyridin-5-one]"
3,117,"Cc1c(N2CCC(OCC3(C)CC3)C3CC32)nc2c(c1C)C(=O)N(C)C2CO (single isomer, unassigned) [Example 5, 7-(hydroxymethyl)-3,4,6-trimethyl-2-(5-((1-methylcyclopropyl)methoxy)-2-azabicyclo[4.1.0]heptan-2-yl)-6,7-dihydro-5H-pyrrolo[3,4-b]pyridin-5-one]"
4,711,"Cc1c(N2CCC(OCC3(C)CC3)C3CC32)nc2c(c1C)C(=O)N(C)C2CO (single isomer, unassigned) [Example 6, 7-(hydroxymethyl)-3,4,6-trimethyl-2-(5-((1-methylcyclopropyl)methoxy)-2-azabicyclo[4.1.0]heptan-2-yl)-6,7-dihydro-5H-pyrrolo[3,4-b]pyridin-5-one]"
5,659,"Cc1c(N2CCC(OCC3(C)CC3)C3CC32)nc2c(c1C)C(=O)N(C)C2CO (single isomer, unassigned) [Example 7, 7-(hydroxymethyl)-3,4,6-trimethyl-2-(5-((1-methylcyclopropyl)methoxy)-2-azabicyclo[4.1.0]heptan-2-yl)-6,7-dihydro-5H-pyrrolo[3,4-b]pyridin-5-one]"
6,3000,"Cc1c(N2CCC(OCC3(C)CC3)C3CC32)nc2c(c1C)C(=O)N(C)C2CO (single isomer, unassigned) [Example 8, 7-(hydroxymethyl)-3,4,6-trimethyl-2-(5-((1-methylcyclopropyl)methoxy)-2-azabicyclo[4.1.0]heptan-2-yl)-6,7-dihydro-5H-pyrrolo[3,4-b]pyridin-5-one]"
7,50,"Cc1c(N2CCC(OCC3(C)CC3)C3CC32)nc2c(c1C)C(=O)N(CCC#N)C2 (single isomer, unassigned) [Example 15, 3-(3,4-dimethyl-2-(5-((1-methylcyclopropyl)methoxy)-2-azabicyclo[4.1.0]heptan-2-yl)-5-oxo-5,7-dihydro-6H-pyrrolo[3,4-b]pyridin-6-yl)propanenitrile]"
8,1530,"Cc1c(N2CCC(OCC3(C)CC3)C3CC32)nc2c(c1C)C(=O)N(CCC#N)C2 (single isomer, unassigned) [Example 16, 3-(3,4-dimethyl-2-(5-((1-methylcyclopropyl)methoxy)-2-azabicyclo[4.1.0]heptan-2-yl)-5-oxo-5,7-dihydro-6H-pyrrolo[3,4-b]pyridin-6-yl)propanenitrile]"
9,103,"Cc1c(N2CCC(OCC3(C)CC3)C3CC32)nc2c(c1C)C(=O)N(CCS(C)(=O)=O)C2 (single isomer, unassigned) [Example 17, 3,4-dimethyl-2-(5-((1-methylcyclopropyl)methoxy)-2-azabicyclo[4.1.0]heptan-2-yl)-6-(2-(methylsulfonyl)ethyl)-6,7-dihydro-5H-pyrrolo[3,4-b]pyridin-5-one]"
10,20200,"Cc1c(N2CCC(OCC3(C)CC3)C3CC32)nc2c(c1C)C(=O)N(CCS(C)(=O)=O)C2 (single isomer, unassigned) [Example 18]"
11,12000,"Cc1c(N2CCC(OCC3(C)CC3)C3CC32)nc2c(c1C)C(=O)N(CC(C)(C)O)C2 (single isomer, unassigned) [Example 20, 6-(2-hydroxy-2-methylpropyl)-3,4-dimethyl-2-(5-((1-methylcyclopropyl)methoxy)-2-azabicyclo[4.1.0]heptan-2-yl)-6,7-dihydro-5H-pyrrolo[3,4-b]pyridin-5-one]"

# Second part, the compound before the results:
row,SMILES,EC50 [nM]
1,"Cc1cc2c(nc1N1CCC(OCC3(C)CC3)C3CC31)CNC2=O (single isomer, unassigned) [Example 3, 3-methyl-2-(5-((1-methylcyclopropyl)methoxy)-2-azabicyclo[4.1.0]heptan-2-yl)-6,7-dihydro-5H-pyrrolo[3,4-b]pyridin-5-one]",40
2,"Cc1cc2c(nc1N1CCC(OCC3(C)CC3)C3CC31)CNC2=O (single isomer, unassigned) [Example 4, 3-methyl-2-(5-((1-methylcyclopropyl)methoxy)-2-azabicyclo[4.1.0]heptan-2-yl)-6,7-dihydro-5H-pyrrolo[3,4-b]pyridin-5-one]",1670
3,"CCc1cc2c(nc1N1CCC(OCC3(C)CC3)C3CC31)C(CO)N(C)C2=O (single isomer, unassigned) [Example 9, 3-ethyl-7-(hydroxymethyl)-6-methyl-2-(5-((1-methylcyclopropyl)methoxy)-2-azabicyclo[4.1.0]heptan-2-yl)-6,7-dihydro-5H-pyrrolo[3,4-b]pyridin-5-one]",8090
4,"CCc1cc2c(nc1N1CCC(OCC3(C)CC3)C3CC31)C(CO)N(C)C2=O (single isomer, unassigned) [Example 10, 3-ethyl-7-(hydroxymethyl)-6-methyl-2-(5-((1-methylcyclopropyl)methoxy)-2-azabicyclo[4.1.0]heptan-2-yl)-6,7-dihydro-5H-pyrrolo[3,4-b]pyridin-5-one]",47
5,"CCc1cc2c(nc1N1CCC(OCC3(C)CC3)C3CC31)C(CO)N(C)C2=O (single isomer, unassigned) [Example 11, 3-ethyl-7-(hydroxymethyl)-6-methyl-2-(5-((1-methylcyclopropyl)methoxy)-2-azabicyclo[4.1.0]heptan-2-yl)-6,7-dihydro-5H-pyrrolo[3,4-b]pyridin-5-one]",742
6,"CCc1cc2c(nc1N1CCC(OCC3(C)CC3)C3CC31)C(CO)N(C)C2=O (single isomer, unassigned) [Example 12, 3-ethyl-7-(hydroxymethyl)-6-methyl-2-(5-((1-methylcyclopropyl)methoxy)-2-azabicyclo[4.1.0]heptan-2-yl)-6,7-dihydro-5H-pyrrolo[3,4-b]pyridin-5-one]",506
7,"Cc1c(N2CCC(OCC3(C)CC3)C3CC32)nc2c(c1C)C(=O)N1CCC(O)CC21 (single isomer, unassigned) [Example 21, 9-hydroxy-3,4-dimethyl-2-(5-((1-methylcyclopropyl)methoxy)-2-azabicyclo[4.1.0]heptan-2-yl)-8,9,10,10a-tetrahydropyrido[2,3-a]indolizin-5(7H)-one]",157
8,"Cc1c(N2CCC(OCC3(C)CC3)C3CC32)nc2c(c1C)C(=O)N1CCC(O)CC21 (single isomer, unassigned) [Example 22, 9-hydroxy-3,4-dimethyl-2-(5-((1-methylcyclopropyl)methoxy)-2-azabicyclo[4.1.0]heptan-2-yl)-8,9,10,10a-tetrahydropyrido[2,3-a]indolizin-5(7H)-one]",116
9,"Cc1c(N2CCC(OCC3(C)CC3)C3CC32)nc2c(c1C)C(=O)N1CCC(O)CC21 (single isomer, unassigned) [Example 23, 9-hydroxy-3,4-dimethyl-2-(5-((1-methylcyclopropyl)methoxy)-2-azabicyclo[4.1.0]heptan-2-yl)-8,9,10,10a-tetrahydropyrido[2,3-a]indolizin-5(7H)-one]",2350
10,"Cc1c(N2CCC(OCC3(C)CC3)C3CC32)nc2c(c1C)C(=O)N1CCC(O)CC21 (single isomer, unassigned) [Example 24, 9-hydroxy-3,4-dimethyl-2-(5-((1-methylcyclopropyl)methoxy)-2-azabicyclo[4.1.0]heptan-2-yl)-8,9,10,10a-tetrahydropyrido[2,3-a]indolizin-5(7H)-one]",2440
